In patent publication US6743419B1, “Method of reducing hair growth employing sulfhydryl active compounds” (The Gillette Company, priority 1992, dated 2004):

How the values were obtained:
[1] = tested on: hair growth; experiment: Inhibition of hair growth (hair mass, treated vs untreated site); assay type: in vivo, hamster
[2] = Percent reduction in hair shaft cysteine (amino acid analysis of hamster flank organ hairs); assay type: in vivo; design: concentration or dose not given beside the values
[3] = Reduction of cystine (generation of cysteine on incubation with cystine, HPLC); settings: 37 C, pH 7.4
[4] = Formation of cysteine-mixed disulfide in vitro (incubation with cystine or cysteine, HPLC); settings: pH 7.4, 37° C.
[5] = Formation of cysteine-mixed disulfide in hair shafts after topical treatment; assay type: in vivo, Golden Syrian hamsters; settings: thirteen topical treatments over 18 days, flank organ

## O=C(O)[C@@H](S)[C@@H](S)C(=O)O [meso-2,3,-Dimercaptosuccinic acid]
[1]; Dose 20%, Vehicle C, topical
  Hair Mass Percent Reduction: 50 ± 5%
  Hair Mass Treated: 1.08 ± 0.16 mg
[2]; hamster flank organ hairs
  Percent reduction in hair shaft cysteine: 22%
[3]
  Reduction of Cystine: YES

## CC(C)(SSC(C)(C)[C@@H](N)C(=O)O)[C@@H](N)C(=O)O [D-Penicillamine disulfide]
[1]; Dose 15%, Vehicle A, topical
  Hair Mass Percent Reduction: 55 ± 4%
  Hair Mass Treated: 1.09 ± 0.23 mg

## C[C@H](CS)C(=O)N1CCC[C@H]1C(=O)O [Captopril, reference compound]
[1]; Dose 10%, Vehicle A, topical
  Hair Mass Percent Reduction: 57 ± 5%
  Hair Mass Treated: 1.49 ± 0.20 mg
[2]; hamster flank organ hairs
  Percent reduction in hair shaft cysteine: 26%
[4]
  Formation of Cysteine mixed disulfide in-vitro: YES
[3]
  Reduction of Cystine: YES

## CCN(CC)C(=S)S [Diethyldithiocarbamic acid]
[1]; Dose 15%, Vehicle A, topical
  Hair Mass Percent Reduction: 68 ± 7%
  Hair Mass Treated: 0.65 ± 0.09 mg
[2]; hamster flank organ hairs
  Percent reduction in hair shaft cysteine: 18%

## NCCS [2-Mercaptoethylamine (Cysteamine), 2-Mercaptoethylamine, reference compound]
[1]; Dose 20%, Vehicle A, topical
  Hair Mass Percent Reduction: 86 ± 3%
  Hair Mass Treated: 0.30 ± 0.09 mg
[2]; hamster flank organ hairs
  Percent reduction in hair shaft cysteine: 50%
[4]
  Formation of Cysteine mixed disulfide in-vitro: YES
[5]
  Formation of Cysteine mixed disulfide in hair shaft: YES
[3]
  Reduction of Cystine: YES

## CCCCCCCCCCCCOC(=O)CCSCCC(=O)OCCCCCCCCCCCC [3,3′-Thiodipropionic acid dilauryl ester]
[1]; Dose 5%, Vehicle D, topical
  Hair Mass Percent Reduction: 30 ± 7%
  Hair Mass Treated: 1.70 ± 0.21 mg
[1]; Dose 20%, Vehicle D, topical
  Hair Mass Percent Reduction: 50 ± 4%
  Hair Mass Treated: 1.07 ± 0.10 mg

## O=S(=O)(O)CC(S)CS (stereo not shown) [2,3,-Dimercapto-1-propanesulfonic acid]
[1]; Dose 20%, Vehicle A, topical
  Hair Mass Percent Reduction: 79 ± 3%
  Hair Mass Treated: 0.64 ± 0.08 mg
[2]; hamster flank organ hairs
  Percent reduction in hair shaft cysteine: 40%
[4]
  Formation of Cysteine mixed disulfide in-vitro: YES
[3]
  Reduction of Cystine: YES

## CC(C)(S)[C@@H](N)C(=O)O [D-Penicillamine, reference compound]
[1]; Dose 15%, Vehicle A, topical
  Hair Mass Percent Reduction: 65 ± 5%
  Hair Mass Treated: 0.57 ± 0.07 mg
[2]; hamster flank organ hairs
  Percent reduction in hair shaft cysteine: 50%
[4]
  Formation of Cysteine mixed disulfide in-vitro: YES
[5]
  Formation of Cysteine mixed disulfide in hair shaft: YES

## 5′-Deoxy-5′-methylthioadenosine
[1]; Dose 10%, Vehicle A, topical
  Hair Mass Percent Reduction: 57 ± 6%
  Hair Mass Treated: 1.25 ± 0.17 mg
[2]; hamster flank organ hairs
  Percent reduction in hair shaft cysteine: 11%

## COC(=O)[C@@H](N)CS [L-Cysteine methyl ester]
[1]; Dose 20%, Vehicle A, topical
  Hair Mass Percent Reduction: 86 ± 3%
  Hair Mass Treated: 0.28 ± 0.07 mg

## O=S(=O)(O)CCO [Isethionic acid]
[1]; Dose 15%, Vehicle A, topical
  Hair Mass Percent Reduction: 50 ± 7%
  Hair Mass Treated: 1.45 ± 0.22 mg

## O=C(O)CCSCCC(=O)O [3,3′-Thiodipropionic acid]
[1]; Dose 20%, Vehicle A, topical
  Hair Mass Percent Reduction: 73 ± 4%
  Hair Mass Treated: 0.76 ± 0.12 mg

## O=C(O)c1ccccc1S [Thiosalicylic acid]
[1]; hamster, in vivo
  Hair Mass Percent Reduction: 89 ± 2%
  Hair Mass Treated: 0.18 ± 0.04 mg
[2]; hamster, in vivo
  Percent reduction in hair shaft cysteine: 14%

## N[C@@H](CS)C(=O)NCC(=O)O [Cystenyl-glycine]
[1]; Dose 15%, Vehicle A, topical
  Hair Mass Percent Reduction: 55 ± 8%
  Hair Mass Treated: 0.93 ± 0.18 mg
[3]
  Reduction of Cystine: YES

## CCOC(=O)[C@@H](N)CS [L-Cysteine ethyl ester]
[1]; Dose 20%, Vehicle A, topical
  Hair Mass Percent Reduction: 82 ± 3%
  Hair Mass Treated: 0.49 ± 0.08 mg

## N[C@H](CS)C(=O)O [D-Cysteine]
[1]; Dose 10%, Vehicle A, topical
  Hair Mass Percent Reduction: 60 ± 3%
  Hair Mass Treated: 1.20 ± 0.17 mg

## O=C(O)CCCCC1CCSS1 (racemic) [DL-α-Lipoic acid (reduced form), DL-α-Lipoic acid]
[1]; Dose 5%, Vehicle B, topical
  Hair Mass Percent Reduction: 16 ± 5%
  Hair Mass Treated: 2.67 ± 0.26 mg
[1]; Dose 15%, Vehicle A, topical
  Hair Mass Percent Reduction: 56 ± 6%
  Hair Mass Treated: 0.74 ± 0.09 mg

## CSCCCN [3-(Methylthio)-propylamine]
[1]; Dose 2%, Vehicle A, topical
  Hair Mass Percent Reduction: 22 ± 13%
  Hair Mass Treated: 0.97 ± 0.13 mg

## CC(=O)N[C@@H](CS)C(=O)O [N-Acetyl-L-Cysteine, reference compound]
[1]; Dose 15%, Vehicle A, topical
  Hair Mass Percent Reduction: 80 ± 4%
  Hair Mass Treated: 0.39 ± 0.07 mg

## NCCSC[C@H](N)C(=O)O [S-2-Aminoethyl-L-cysteine]
[1]; Dose 20%, Vehicle A, topical
  Hair Mass Percent Reduction: 50 ± 11%
  Hair Mass Treated: 0.99 ± 0.20 mg

## O=C(O)CCCSSCCCC(=O)O [3-Carboxypropyl disulfide]
[1]; Dose 15%, Vehicle A, topical
  Hair Mass Percent Reduction: 74 ± 4%
  Hair Mass Treated: 0.70 ± 0.14 mg

## O=C(O)c1cc(/N=N/c2ccc(S(=O)(=O)Nc3ccccn3)cc2)ccc1O [Sulfasalazine, reference compound]
[1]; Dose 20%, Vehicle C, topical
  Hair Mass Percent Reduction: 61 ± 6%
  Hair Mass Treated: 0.88 ± 0.14 mg
[2]; hamster flank organ hairs
  Percent reduction in hair shaft cysteine: (−2%)

## C=CCSCC=C [Allyl sulfide]
[1]; Dose 20%, Vehicle B, topical
  Hair Mass Percent Reduction: 17 ± 10%
  Hair Mass Treated: 1.74 ± 0.16 mg
